Data from EP0103895A2, “Novel hydroxylamine derivatives, production and use thereof” (MEIJI SEIKA KABUSHIKI KAISHA, priority 1982, dated 1984).
Several values for one entry are separate records, joined by “and”; a condition that tells them apart may be missing. Equal entries are not always repeated. Where two headings read alike, the source gives them in different places.

What was measured:
[1] = test system: fowl roundworm (Ascaridia galli); experiment: Anthelmintic test in chickens artificially infected with fowl roundworm, single oral dose in gelatin capsule, worm bodies counted within 48 hours (Test Examples A1, B1, C1, D1); type: in vivo; conditions: Ascaridia galli, po, 48 h, read-out: Anthelmintic effect after 48 hours
Summary of the method: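 Anthelmintic percentage derived from counts of worms passed within 48 h plus worms left in the intestine after killing at 48 h. Infection confirmed by fecal examination in three-bird groups; compound given orally once in gelatin capsules at 10/20 (A1, B1), 30/50 (C1) or 15/30 (D1) mg/kg.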

[2] = test system: fowl roundworm (As. galli); experiment: Anthelmintic test in chickens artificially infected with fowl roundworm, compound added to feed, E.P.G. and worm count up to 21st day (Test Examples A2, B2, C2, D2); type: in vivo, Ascaridia galli; conditions: chicken
[3] = test system: canine whipworm (Trichuris vulpis); experiment: Anthelmintic test in naturally infected dogs with mixed infections, E.P.G. on 7th day: canine whipworm (Test Examples A3, B3, C3, D3); type: in vivo
Experimental: (§1) Three dogs with mixed infections by canine whipworm (Trichuris vulpis), canine hookworm (Ancylostoma caninum) and canine roundworm (Toxocara canis) (naturally infected dogs) were employed in a group of two and a group of one.
(§2) The compound provided for the test was Compound No.Al, and 20 mg/Kg thereof was placed in a gelatin capsule per 1 Kg of body weight, and administered orally to the two dogs. As control, only a gelatin capsule was administered orally to the one dog.
(§3) Before administration and on the 7th day after administration, fecal matter testing was conducted to calculate the E.P.G., and the anthelmintic effect was judged by the changing of the E.P.G. to negative.
(§4) As control, only gelatin capsules were administered orally to the one dog.
(§5) The same method as in Test Example A3, but the compound provided for the test was Compound No. Cl. 30 mg/Kg of this compound was placed in a gelatin capsule per 1 Kg of body weight and administered orally to the two dogs. As control, only gelatin capsules were administered orally to the one dog.

[4] = test system: canine hookworm (Ancylostoma caninum); experiment: Anthelmintic test in naturally infected dogs with mixed infections, E.P.G. on 7th day: canine hookworm (Test Examples A3, B3, C3, D3); type: in vivo; conditions: dog
Experimental: as §1, §2, §3, §4, §5

[5] = test system: canine roundworm (Toxocara canis); experiment: Anthelmintic test in naturally infected dogs with mixed infections, E.P.G. on 7th day: canine roundworm (Test Examples A3, B3, C3, D3); type: in vivo; conditions: dog
Experimental: as §1, §2, §3, §4, §5

[6] = test system: stomach worm (Haemonchus controtus); experiment: Anthelmintic test against cow stomach worm in naturally infected cows, E.P.G. on 7th day (Test Examples A6, B6, C6, D6); type: in vivo
Experimental: Three cows infected with stomach worm (naturally infected cows) were employed by grouping them into a group of two and a group of one.
(§6) As control, only gelatin capsules were administered orally to the one cow.
as §3, §6, §6

[7] = test system: canine filaria; Dirofilaria immitis; experiment: Test of anthelmintic effect against canine filaria in naturally infected dogs, subcutaneous injection, microfilaria in blood and adult filaria at autopsy (Test Examples A10, B10, C10, D10); type: in vivo; conditions: for inhibition in vivo at 30 mg/kg: Dirofilaria immitis, sc, 240 h; for Effect on adult filaria: Number of worms killed/ Total parasite: 30 mg/kg
[8] = test system: canine strongyloides (Strongyloides stercoralis); experiment: Anthelmintic test against canine strongyloides in naturally infected dogs, E.P.G. on 7th day (Test Examples A4, B4, C4, D4); type: in vivo; conditions: dogs, 20 mg/Kg orally once, one value per dog
Experimental: Three dogs infected with canine strongyloides (naturally infected dogs) were employed by grouping them into a group of two and a group of one.
As control, only a gelatin capsule was administered orally to the one dog.
as §3, §4, §4

[9] = test system: Liver fluke; Fasciola hepatica (F. hepatica); experiment: Test of anthelmintic effect against rat infected experimentally with liver fluke (Test Examples A11, B11, C11, D11); type: in vivo
[10] = test system: Trichostrongylidae (Trichostrongylus colubriformis); experiment: Anthelmintic test against sheep Trichostrongylidae in naturally infected sheep, E.P.G. on 7th day (Test Examples A7, B7, C7, D7); type: in vivo
[11] = 30 mg/Kg oral in gelatin capsule, one administration
[12] = before 30 mg/Kg oral (baseline)
[13] = dog, 30 mg/Kg x 3, subcutaneous injection, read-out: Effect on adult filaria: Percent of worms killed
[14] = dogs, administration of 30 mg/Kg repeated three times, given as about 50% or more, read-out: anthelmintic effect against adult filaria
[15] = dog, 30 mg/Kg x 3, subcutaneous injection, suspension in 1% Tween 80
[16] = dog, 30 mg/Kg x 3, subcutaneous injection
[17] = dogs, administration of 30 mg/Kg repeated three times

For `C=CCON(CC=C)C(C)=O` [Compound C1, N,O-diallyl-N-acetylhydroxyl- amine], the inhibition in vivo at 30 mg/kg ([1]; chicken, 30 mg/Kg oral in gelatin capsule, chickens No.1-3) was 100%, the inhibition in vivo at 50 mg/kg ([1]; chicken, 50 mg/Kg oral in gelatin capsule, chickens No.1-3) was 100% and the inhibition in vivo at 25 ppm ([2]; Ascaridia galli, feed or water, 504 h, 25 ppm in feed, read-out: Anthelmintic effect) was 100%. The inhibition in vivo at 50 ppm ([2]; Ascaridia galli, feed or water, 504 h, 50 ppm in feed, read-out: Anthelmintic effect) was 100%, the “Change of E.P.G. 21st day” value ([2]; 25 ppm in feed) was 0 and the “Change of E.P.G. 21st day” value ([2]; 50 ppm in feed) was 0. For the same molecule, the “Change of E.P.G. 7th day” value ([3]; dog, Trichuris vulpis, 30 mg/Kg oral in gelatin capsule, one administration) was 0, the “Change of E.P.G. Before administration” value ([3]; dog, Trichuris vulpis, before 30 mg/Kg oral (baseline)) was 2,300 and 4,200 and the “anthelmintic effect” value ([3]; dogs with mixed infections (Trichuris vulpis, Ancylostoma caninum, Toxocara canis; statement covers all three), one administration of 30 mg/Kg) was “marked anthelmintic effect”. The “Change of E.P.G. 7th day” value [4, 11] was 0, the “Change of E.P.G. Before administration” value [4, 12] was 4,500 and 6,600 and the “Change of E.P.G. 7th day” value [5, 11] was 0. The “Change of E.P.G. Before administration” value [5, 12] was 3,300 and 3,100, the “Change of E.P.G. 7th day” value ([6]; cow, Haemonchus controtus, 20 mg/Kg oral in gelatin capsule, one administration) was 0 and the “Change of E.P.G. Before administration” value ([6]; cow, Haemonchus controtus, before 20 mg/Kg oral (baseline)) was 2,200 and 1,400. The “anthelmintic effect” value ([6]; cows, one administration of 20 mg/Kg) was “marked anthelmintic effect”, the inhibition in vivo at 30 mg/kg [7, 13] was 86% and the inhibition in vivo at 30 mg/kg [7, 14] was ≥ 50%. For the same molecule, the “Number of microfilaria/20 µl On 10th day after the last administration” value [7, 15] was 0 /20 µl, the “Effect on adult filaria: Number of worms killed/ Total parasite” value [7, 16] was 13/15 and 16/21 and the “anthelmintic effect against microfilaria (mf)” value [7, 17] was “marked anthelmintic effect”.

For `C=CCN(OCC)C(C)=O` [Compound B8, N-allyl-N-acetyl-O-ethylhydroxylamine], the inhibition in vivo at 30 mg/kg ([1]; chickens, 30 mg/Kg orally in gelatin capsule, one value per chicken (No.1-3)) was 100%, the inhibition in vivo at 50 mg/kg ([1]; chickens, 50 mg/Kg orally in gelatin capsule, one value per chicken (No.1-3)) was 100% and the “Change of E.P.G. Before administration” value ([8]; baseline, 20 mg/kg) was 5,300 E.P.G. and 2,600 E.P.G. The “Change of E.P.G. 7th day” value [8] was 0 E.P.G, the inhibition in vivo at 30 mg/kg [7, 13] was 58% and the inhibition in vivo at 30 mg/kg [7, 14] was ≥ 50%. The “Number of microfilaria/20 µl on 10th day after the last administration” value [7, 15] was 0 /20 µl, the “Effect on adult filaria: Number of worms killed/ Total parasite” value [7, 16] was 7/12 and 13/21 and the “anthelmintic effect against microfilaria (mf)” value [7, 17] was “marked anthelmintic effect”. The “Condition of fluke body” value ([9]; rat, 50 mg/Kg x 5) was “dead”, the “Presence or absence of fluke egg in fecal matter On 21st day after the last administration” value ([9]; rat, 50 mg/Kg x 5) was “-” and the “anthelmintic effect” value ([9]; rats, five administrations in a dose of 50 mg/Kg each) was “marked antihelmintic effect”. For the same molecule, the “Change of E.P.G. 7th day” value ([10]; 20 mg/Kg orally once) was 0 E.P.G, the “Change of E.P.G. Before administration” value ([10]; 20 mg/Kg orally once, baseline) was 3,400 E.P.G and the “anthelmintic effect” value ([10]; one administration of 20 mg/Kg) was “marked anthelmintic effect”.
